biological target: T1, Nav1.8 ion channel stably expressed on HEK293 cells (Homo sapiens, UniProt Q9Y5Y9); assay: Inhibitory activity on Nav1.8, manual patch clamp; assay type: cell-based; details: resting, clamped at -80 mV, 1 μM TTX, read-out: IC50 on inhibiting the Nav1.8 channel activity
T1 construct: expressed in transfected cells; host or cells: HEK293
Text: The purpose of the experiment is to investigate the effect of the compounds on Nav1.8 ion channel in an in vitro experiment, wherein the Nav1.8 ion channel is stably expressed on HEK293 cells. After the Nav1.8 current becomes stable, the Nav1.8 currents before and after the administration of the compound are compared so as to obtain the effect of the compound on the Nav1.8 ion channel.
Except for NaOH and KOH used for acid titration and base titration, all the compounds used for formulating the extracellular fluid and intracellular fluid were purchased from Sigma (St. Louis, Mo.). Extracellular fluid (mM): NaCl, 137; KCl, 4; CaCl2), 1.8; MgCl2, 1; HEPES, 10; glucose, 10; pH 7.4 (NaOH titration). Intracellular fluid (mM): aspartic acid, 140; MgCl2, 2; EGTA, 11; HEPES, 10; pH 7.2 (CsOH titration). All solutions of test compound and control compound contained 1 μM TTX.
The test compound was dissolved in dimethyl sulfoxide (DMSO) at a stock concentration of 9 mM. The stock solution of the test compound was dissolved in the extracellular fluid on the day of the test and formulated into the required concentration.
1) The compound was formulated into solutions with specified concentrations, the solutions were added to the pipelines respectively in order from low to high concentration, and the pipelines were marked.
2) The cell was transferred to the perfusion tank. A positive pressure was applied to the electrode. The tip of the electrode touched the cell. The three-way valve of the air extracting device was adjusted to a three-way state. A negative pressure was applied to the electrode, so that a high-resistance seal was formed between the electrode and the cell.
The negative pressure was applied continuously, thereby causing the cell membrane to rupture and forming a current path.
3) After the current for rupturing the cell membrane became stable, perfusion of different concentrations was carried out in sequence. Once the current was stable for at least one minute, perfusion of the next concentration was carried out.
4) The perfusion tank was cleaned. The perfusion tank was rinsed with the drug solutions in order from high to low concentration, and the rinse duration for each concentration of drug solution was 20 seconds. The perfusion tank was finally rinsed with the extracellular fluid for 1 minute.
The cell was clamped at −80 mV. The cell was depolarized to 10 mV with a square wave lasting 10 milliseconds to obtain the Nav1.8 current. This procedure was repeated every 5 seconds. The maximum current caused by the square wave was measured. After the current became stable, the test compound was perfused. After the response became stable, the blocking intensity was calculated.
The data was stored in the computer system for analysis. Data collection and analysis were carried out by pCLAMP 10 (Molecular Devices, Union City, Calif.), and the analysis results were reviewed by the administrator. Stable current means that the current changes within a limited range over time. The magnitude of stable current was used to calculate the effect of the compound at the concentration.

T1 sequence (Q9Y5Y9 whole entry): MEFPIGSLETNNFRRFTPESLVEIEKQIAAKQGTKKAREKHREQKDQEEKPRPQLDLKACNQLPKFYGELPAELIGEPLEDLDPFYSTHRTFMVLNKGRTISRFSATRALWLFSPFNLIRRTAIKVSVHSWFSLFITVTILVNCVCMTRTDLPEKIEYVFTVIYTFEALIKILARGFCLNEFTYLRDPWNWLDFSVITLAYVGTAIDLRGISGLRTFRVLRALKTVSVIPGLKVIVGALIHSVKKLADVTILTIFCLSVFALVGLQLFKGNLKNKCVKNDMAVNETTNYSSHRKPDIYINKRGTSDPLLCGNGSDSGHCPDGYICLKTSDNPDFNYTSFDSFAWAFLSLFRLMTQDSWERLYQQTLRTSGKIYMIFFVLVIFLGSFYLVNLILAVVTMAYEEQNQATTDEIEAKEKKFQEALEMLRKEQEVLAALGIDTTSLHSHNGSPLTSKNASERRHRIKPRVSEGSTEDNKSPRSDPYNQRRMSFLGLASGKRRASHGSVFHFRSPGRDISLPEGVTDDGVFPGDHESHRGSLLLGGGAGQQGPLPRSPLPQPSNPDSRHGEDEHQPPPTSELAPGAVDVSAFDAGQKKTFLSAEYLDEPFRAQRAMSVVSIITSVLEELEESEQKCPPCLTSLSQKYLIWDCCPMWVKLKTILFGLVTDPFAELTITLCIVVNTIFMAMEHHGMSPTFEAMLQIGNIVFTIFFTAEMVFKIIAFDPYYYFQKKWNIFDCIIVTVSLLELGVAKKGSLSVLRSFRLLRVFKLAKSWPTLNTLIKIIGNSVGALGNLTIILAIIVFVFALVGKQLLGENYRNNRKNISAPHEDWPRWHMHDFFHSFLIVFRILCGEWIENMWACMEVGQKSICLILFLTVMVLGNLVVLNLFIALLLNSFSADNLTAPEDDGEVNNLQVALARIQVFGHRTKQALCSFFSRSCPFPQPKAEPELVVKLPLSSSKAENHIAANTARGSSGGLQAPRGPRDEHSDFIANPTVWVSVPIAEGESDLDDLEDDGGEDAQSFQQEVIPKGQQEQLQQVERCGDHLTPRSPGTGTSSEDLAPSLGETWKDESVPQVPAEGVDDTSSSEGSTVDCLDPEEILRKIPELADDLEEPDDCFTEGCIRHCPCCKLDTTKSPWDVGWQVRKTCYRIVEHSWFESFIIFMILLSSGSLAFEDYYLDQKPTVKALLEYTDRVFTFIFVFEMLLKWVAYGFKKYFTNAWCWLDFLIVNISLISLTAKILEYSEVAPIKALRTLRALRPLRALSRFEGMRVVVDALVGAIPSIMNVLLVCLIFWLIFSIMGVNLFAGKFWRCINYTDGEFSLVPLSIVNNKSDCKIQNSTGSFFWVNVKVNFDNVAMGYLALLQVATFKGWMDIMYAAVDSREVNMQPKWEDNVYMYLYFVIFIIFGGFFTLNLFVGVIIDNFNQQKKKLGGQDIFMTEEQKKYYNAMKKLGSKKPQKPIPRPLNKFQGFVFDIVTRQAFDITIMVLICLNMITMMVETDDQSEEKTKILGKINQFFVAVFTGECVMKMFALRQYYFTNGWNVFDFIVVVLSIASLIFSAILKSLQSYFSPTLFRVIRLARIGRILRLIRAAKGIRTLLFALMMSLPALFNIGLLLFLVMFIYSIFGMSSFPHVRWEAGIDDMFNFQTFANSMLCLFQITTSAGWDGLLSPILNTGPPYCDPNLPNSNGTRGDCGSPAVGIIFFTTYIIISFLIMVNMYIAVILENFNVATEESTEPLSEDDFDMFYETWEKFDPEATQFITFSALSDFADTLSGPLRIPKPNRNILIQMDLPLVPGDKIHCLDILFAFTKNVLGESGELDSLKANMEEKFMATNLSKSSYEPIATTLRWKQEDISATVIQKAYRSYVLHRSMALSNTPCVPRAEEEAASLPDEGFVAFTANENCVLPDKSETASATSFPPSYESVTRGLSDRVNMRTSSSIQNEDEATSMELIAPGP

Which IC50 does the source give for Cc1cc(F)ccc1Oc1cc(Cl)c(Cl)cc1C(=O)Nc1cn[nH]c(=O)c1 [Example 3, 4,5-Dichloro-2-(4-fluoro-2-methylphenoxy)-N-(6-oxo-1,6-dihydropyridazin-4-yl)benzamide] here?
Its IC50 is 0.0033 µM.

How did the IC50 turn out when Cc1cc(F)ccc1Cc1cc(C(F)(F)F)c(Cl)cc1C(=O)Nc1cn[nH]c(=O)c1 [Example 13, 5-Chloro-2-(4-fluoro-2-methylbenzyl)-N-(6-oxo-1,6-dihydropyridazin-4-yl)-4-(trifluoromethyl)benzamide] was run?
Its IC50 is 0.0023 µM.

O=C(Nc1cn[nH]c(=O)c1)c1cc(Cl)c(C(F)(F)F)cc1Oc1ccc(F)cc1F [Example 46, 5-Chloro-2-(2,4-difluorophenoxy)-N-(6-oxo-1,6-dihydropyridazin-4-yl)-4-(trifluoromethyl)benzamide] was tested. Which IC50 did it give?
Its IC50 is 0.00895 µM.

Which IC50 does the source give for COc1cc(F)ccc1Oc1ccc(OC(F)(F)F)cc1C(=O)Nc1cn[nH]c(=O)c1 [Example 22, 2-(4-Fluoro-2-methoxyphenoxy)-N-(6-oxo-1,6-dihydropyridazin-4-yl)-5-(trifluoromethoxy)benzamide] here?
The IC50 was 0.0878 µM.

How did the IC50 turn out when COc1cc(F)ccc1Sc1cc(C(F)(F)F)c(Cl)cc1C(=O)Nc1cn[nH]c(=O)c1 [Example 17, 5-Chloro-2-((4-fluoro-2-methoxyphenyl)thio)-N-(6-oxo-1,6-dihydropyridazin-4-yl)-4-(trifluoromethyl)benzamide] was run?
The IC50 was 0.018 µM.

Cc1cc(F)ccc1Oc1ccc(C(F)(F)F)cc1C(=O)Nc1cn[nH]c(=O)c1 [Example 7, 2-(4-Fluoro-2-methylphenoxy)-N-(6-oxo-1,6-dihydropyridazin-4-yl)-5-(trifluoromethyl)benzamide] was tested. Which IC50 did it give?
The IC50 was 0.0308 µM.

How did the IC50 turn out when COc1cc(F)ccc1Oc1cc(C(F)(F)F)ccc1C(=O)Nc1cn[nH]c(=O)c1 [Example 8, 2-(4-Fluoro-2-methoxyphenoxy)-N-(6-oxo-1,6-dihydropyridazin-4-yl)-4-(trifluoromethyl)benzamide] was run?
The IC50 was 0.0458 µM.

How did the IC50 turn out when COc1cc(F)ccc1Oc1cc(Cl)ccc1C(=O)Nc1cn[nH]c(=O)c1 [Example 21, 4-Chloro-2-(4-fluoro-2-methoxyphenoxy)-N-(6-oxo-1,6-dihydropyridazin-4-yl)benzamide] was run?
The IC50 was 0.0594 µM.

For O=C(Nc1cn[nH]c(=O)c1)c1cc(Cl)c(C(F)(F)F)cc1Oc1ccc(F)cc1Br [Example 43, 2-(2-Bromo-4-fluorophenoxy)-5-chloro-N-(6-oxo-1,6-dihydropyridazin-4-yl)-4-(trifluoromethyl)benzamide], which IC50 is on record?
The IC50 was 0.00336 µM.

With COc1cc(F)ccc1Oc1cc(Cl)c(F)cc1C(=O)Nc1cn[nH]c(=O)c1 [Example 18, 4-Chloro-5-fluoro-2-(4-fluoro-2-methoxyphenoxy)-N-(6-oxo-1,6-dihydropyridazin-4-yl)benzamide] as the compound, how does the IC50 read?
Its IC50 is 0.0222 µM.

For Cc1cc(F)ccc1Oc1cc(Cl)c(C(F)(F)F)cc1C(=O)Nc1cn[nH]c(=O)c1 [Example 27, 4-Chloro-2-(4-fluoro-2-methylphenoxy)-N-(6-oxo-1,6-dihydropyridazin-4-yl)-5-(trifluoromethyl)benzamide], which IC50 is on record?
The IC50 was 0.0057 µM.

CC(C)Oc1cc(F)ccc1Oc1cc(C(F)(F)F)c(Cl)cc1C(=O)Nc1cn[nH]c(=O)c1 [Example 42] was tested. Which IC50 did it give?
Its IC50 is 0.00298 µM.

Which IC50 does the source give for Cc1cc(OC(F)(F)F)ccc1Oc1cc(C(F)(F)F)ccc1C(=O)Nc1cn[nH]c(=O)c1 [Example 6, 2-(2-Methyl-4-(trifluoromethoxy)phenoxy)-N-(6-oxo-1,6-dihydropyridazin-4-yl)-4-(trifluoromethyl)benzamide] here?
Its IC50 is 0.0244 µM.

With CCc1cc(F)ccc1Oc1cc(C(F)(F)F)c(Cl)cc1C(=O)Nc1cn[nH]c(=O)c1 [Example 36, 5-Chloro-2-(2-ethyl-4-fluorophenoxy)-N-(6-oxo-1,6-dihydropyridazin-4-yl)-4-(trifluoromethyl)benzamide] as the compound, how does the IC50 read?
The IC50 was 0.00154 µM.

How did the IC50 turn out when Cc1cc(F)ccc1Oc1cc(C(F)(F)F)c(C)cc1C(=O)Nc1cn[nH]c(=O)c1 [Example 34, 2-(4-Fluoro-2-methylphenoxy)-5-methyl-N-(6-oxo-1,6-dihydropyridazin-4-yl)-4-(trifluoromethyl)benzamide] was run?
The IC50 was 0.0115 µM.

Which IC50 does the source give for Cc1cc(F)ccc1Oc1cc(Cl)c(F)cc1C(=O)Nc1cn[nH]c(=O)c1 [Example 19, 4-Chloro-5-fluoro-2-(4-fluoro-2-methylphenoxy)-N-(6-oxo-1,6-dihydropyridazin-4-yl)benzamide] here?
Its IC50 is 0.0317 µM.

How did the IC50 turn out when O=C(Nc1cn[nH]c(=O)c1)c1cc(Cl)c(C(F)(F)F)cc1Oc1ccc(F)cc1OC1CCC1 [Example 41, 5-Chloro-2-(2-cyclobutoxy-4-fluorophenoxy)-N-(6-oxo-1,6-dihydropyridazin-4-yl)-4-(trifluoromethyl)benzamide] was run?
The IC50 was 0.00186 µM.

Cc1cc(F)ccc1Oc1cc(C(F)(F)F)ccc1C(=O)Nc1cn[nH]c(=O)c1 [Example 9, 2-(4-Fluoro-2-methylphenoxy)-N-(6-oxo-1,6-dihydropyridazin-4-yl)-4-(trifluoromethyl)benzamide] was tested. Which IC50 did it give?
The IC50 was 0.0834 µM.

O=C(Nc1cn[nH]c(=O)c1)c1cc(Cl)c(C(F)(F)F)cc1Oc1ccc(OC(F)(F)F)cc1F [Example 14, 5-Chloro-2-(2-fluoro-4-(trifluoromethoxy)phenoxy)-N-(6-oxo-1,6-dihydropyridazin-4-yl)-4-(trifluoromethyl)benzamide] was tested. Which IC50 did it give?
The IC50 was 0.0025 µM.

Which IC50 does the source give for Cc1cc(F)ccc1Oc1cc(Cl)ccc1C(=O)Nc1cn[nH]c(=O)c1 [Example 20, 4-Chloro-2-(4-fluoro-2-methylphenoxy)-N-(6-oxo-1,6-dihydropyridazin-4-yl)benzamide] here?
Its IC50 is 0.0585 µM.

For O=C(Nc1cn[nH]c(=O)c1)c1cc(Cl)c(C(F)(F)F)cc1Oc1ccc(F)cc1Cl [Example 45, 5-Chloro-2-(2-chloro-4-fluorophenoxy)-N-(6-oxo-1,6-dihydropyridazin-4-yl)-4-(trifluoromethyl)benzamide], which IC50 is on record?
Its IC50 is 0.00508 µM.

How did the IC50 turn out when O=C(Nc1cn[nH]c(=O)c1)c1cc(Cl)c(Cl)cc1Oc1ccc(F)cc1 [Example 4, 4,5-Dichloro-2-(4-fluorophenoxy)-N-(6-oxo-1,6-dihydropyridazin-4-yl)benzamide] was run?
The IC50 was 0.0141 µM.

For Cc1cc(F)ccc1Oc1ccc(Cl)cc1C(=O)Nc1cn[nH]c(=O)c1 [Example 23, 5-Chloro-2-(4-fluoro-2-methylphenoxy)-N-(6-oxo-1,6-dihydropyridazin-4-yl)benzamide], which IC50 is on record?
Its IC50 is 0.0923 µM.

For O=C(Nc1cn[nH]c(=O)c1)c1cc(Cl)c(C(F)(F)F)cc1Oc1ccc(F)c2c1CCC2 [Example 39, 5-Chloro-2-((7-fluoro-2,3-dihydro-1H-inden-4-yl)oxy)-N-(6-oxo-1,6-dihydropyridazin-4-yl)-4-(trifluoromethyl)benzamide], which IC50 is on record?
The IC50 was 0.00024 µM.

With COc1cc(F)ccc1Oc1cc(Cl)c(Cl)cc1C(=O)Nc1cn[nH]c(=O)c1 [Example 1, 4,5-Dichloro-2-(4-fluoro-2-methoxyphenoxy)-N-(6-oxo-1,6-dihydropyridazin-4-yl)benzamide] as the compound, how does the IC50 read?
The IC50 was 0.0016 µM.

Cc1ccccc1Oc1cc(C(F)(F)F)c(Cl)cc1C(=O)Nc1cn[nH]c(=O)c1 [Example 30, 5-Chloro-N-(6-oxo-1,6-dihydropyridazin-4-yl)-2-(o-tolyloxy)-4-(trifluoromethyl)benzamide] was tested. Which IC50 did it give?
Its IC50 is 0.0162 µM.

How did the IC50 turn out when O=C(Nc1cn[nH]c(=O)c1)c1cc(Cl)c(C(F)(F)F)cc1Oc1ccc(F)cc1OC1CCCC1 [Example 40, 5-Chloro-2-(2-(cyclopentyloxy)-4-fluorophenoxy)-N-(6-oxo-1,6-dihydropyridazin-4-yl)-4-(trifluoromethyl)benzamide] was run?
The IC50 was 0.00032 µM.

Source: patent publication US20220073471A1 (JIANGSU HENGRUI MEDICINE CO., LTD., priority 2019, published 2022)
